Source: patent publication US5011839A, “3(2H)pyridazinones for antagonistic agent against srs-a” (Nissan Chemical Industries Ltd., priority 1988, dated 1991)

System: LTD4 (contractile responses of guinea-pig trachea)
Assay: LTD4 antagonism in guinea-pig trachea (in vitro test, isolated tracheal spiral strip)
Assay type: cell-based
Details: Cavia porcellus, 0.5 h; test compound concentration 10^6 g/ml [sic], added 30 min prior to LTD4; isolated male guinea-pig trachea; vs paired control
Method: LTD4 antagonism in guinea-pig trachea
Antagonism for LTD4 was determined in isolated male guinea-pig (300-400 g) trachea prepared as spiral strip. Tracheal preparations were suspended under 1 g tension in 10 ml organ baths containing 5 μM of indomethacin and they were incubated for 1 hour prior to used. Contractile responses to LTD4 (2×10^8 g/ml) were obtained after the maximal response to histamine (10^4 M). Test compounds dissolved in 100% dimethyl sulfoxide were added to the organ baths (final concentration of 10^6 g/ml) 30 min prior to LTD4 addition, and then contractile responses to LTD4 were compared with those of control which was obtained from a paired trachea in the absence of test compounds. LTD-induced contractions were expressed as a percentage of the maximal response to histamine. The antagonism was determined as follows:
Antagonism (%)=(1.0-% contraction in test/% contraction in […]

Row | Structure (SMILES) | inhibition at 1 µg/mL
1 | CCn1ncc(NCc2c(OC)ccc3ccccc23)c(Br)c1=O [compound 25] | 50%
2 | CCCc1c(OCC(O)COc2ccc3c(=O)cc(C(=O)O)oc3c2CCC)ccc(C(C)=O)c1O (centres unmarked) [FPL-55712, reference compound] | 94%
3 | CCCCOc1n[nH]c(=O)c(Cl)c1NCc1ccc(Cl)nc1 [compound 57] | 69%
4 | COc1ccc(CNc2cn[nH]c(=O)c2Cl)c2ccccc12 [Compound No. 5, 4-Chloro-5-(4-methoxy-1-naphthylmethylamino)-3(2H)pyridazinone] | 79%
5 | COc1ccc(CNc2c([N+](=O)[O-])n[nH]c(=O)c2Cl)c2ccccc12 [Compound No. 30, 4-Chloro-5-(4-methoxy-1-naphthylmethylamino)-6-nitro-3(2H)pyridazinone] | 50%
6 | CCn1ncc(NCc2cccc3ccccc23)c(Br)c1=O [compound 23] | 57%
7 | CCn1nc(OC)c(NCc2ccc(OC)c3ccccc23)c(Cl)c1=O [compound 38] | 43%
8 | CCn1ncc(NCc2ccc3ccccc3c2)c(Br)c1=O [compound 24] | 67%
9 | COc1ccc(CNc2cn[nH]c(=O)c2Br)c2ccccc12 [Compound No. 16] | 74%
10 | CCCCCCOc1n[nH]c(=O)c(Cl)c1NCc1cccnc1 [compound 60] | 96%
11 | CCOc1n[nH]c(=O)c(Cl)c1NCc1ccc(OC)c2ccccc12 [Compound No. 31] | 95%
12 | COc1ccc(CNc2c(Cl)n[nH]c(=O)c2Cl)c2ccccc12 [Compound No. 34, 4,6-Dichloro-5-(4-methoxy-1-naphthylmethylamino)-3(2H)pyridazinone] | 99%
13 | COc1ccc(CNc2c(OC(C)C)n[nH]c(=O)c2Cl)c2ccccc12 [Compound No. 32, 4-Chloro-5-(4-methoxy-1-naphthylmethylamino)-6-i-propoxy-3(2H)pyridazinone] | 50%
14 | CCn1ncc(NCc2ccco2)c(Br)c1=O [Compound No. 22, 2Ethyl-4-bromo-5-(2-furanylmethylamino)-3(2H)pyridazinone] | 39%
